Patent US4146501A, “Process for isolating and purifying taste bud receptors for screening and evaluating tastants” (priority 1976, dated 1979)
“Also recorded” adds a separate entry of the source. Read-outs that look alike come from different tables or passages of the source.

Tests used:
[1] = biological target: taste bud P4(B) subfractions; test: Specific binding: competition of 14C sugars or SSS with unlabeled homologous and heterologous sugars, Scatchard analysis; parameters: species or system bovine; conditions: for Kd: mean ± 1 SEM; for specific binding (competition of 14C sugar or SSS with homologous unlabeled sugar or SSS): taste bud P4(B), FIG. 7; for competition of unlabeled sugar with glucose binding / competition of unlabeled sugar with sucrose binding / competition of unlabeled sugar with fructose binding: FIG. 8, in words; for Inhibition (%) of 14C Fructose binding by unlabelled sugar / Inhibition (%) of 14C Glucose binding by unlabelled sugar / Inhibition (%) of 14C Sucrose binding by unlabelled sugar: maximal concentration of unlabelled sugar, range of values; for Relative Binding Inhibition: homologous set at 100
[2] = test system: taste bud subfraction P4(B); test: Binding inhibition of 14C sucrose by various substances; parameters: species or system bovine
[3] = test system: taste bud filtrates and B subfractions [P2,3,4(B)]; test: Binding of 14C sugars to taste bud filtrates and B subfractions; parameters: species or system bovine; conditions: for 14C sugar binding / Relative enrichment of sugar binding compared to the initial filtrate: Bud; for 14C sugar binding: 30 min at 30° C
Method: (§1) The following procedure was utilized in tastant evaluation according to the process of this invention: Protein concentrations were determined by the methods of Lowry et al., (1951) J. Biol. […] According to density, physical appearance as determined by using electron microscopic morphology enzymatic activity and chemical analysis, B subfractions from taste buds and epithelial tissues achieved the greatest membrane purification compared with other subfractions. Among the taste bud B subfractions, P4(B) was morphologically more homogeneous with respect to membranes than P3(B) whereas P2(B) was the least homogeneous of all. Epithelial tissue B subfractions contained mainly fibrous tissue and few differences were found in morphology, density, enzymatic activity or chemical analysis between P2(B) or P4(B) subfractions. Taste bud and epithelial tissue D subfractions contained relatively few membrane fragments compared to the large amount of other cellular organelles present and therefore were not included in these studies. […] Each filtrate and subfraction was washed three times with calcium free, 0.2 M Krebs-Ringer bicarbonate (KRB) pH 7.4, suspended in the same buffer in a final volume of 2 ml and frozen in liquid nitrogen. No detectable change in binding characteristics from suspensions of taste bud or epithelial tissue fractions was observed after storage at -80° for as long as two months. All binding studies were carried out in plastic micro test tubes in a constant temperature shaking bath. For these studies KRB, suspensions of the initial filtrates, subfractions and ^14 C labeled and/or unlabeled sugars were incubated in a final volume of 100 μl. After incubation the tubes were placed in an ice bath, centrifuged, the supernatant aspirated and 10 μl KRB layered on top of the pellet. The KRB was then aspirated, the top of the test tube cut off with a razor blade just above the bellet, placed into 10 ml Aquasol (New England Nuclear Corp., Boston, Mass.) and the radioactivity determined in a liquid scintillation spectrophotometer. Controls, without filtrates or subfractions, were also included. […] The tubes were then placed in an ice bath for 3 minutes, and then centrifuged at 15,000 rpm for 6 min.

[4] = test system: non-taste bud bearing epithelial tissue filtrates and B subfractions [P2,4(B)]; test: Binding of 14C sugars to non-taste bud bearing epithelial tissue filtrates and B subfractions (control); parameters: species or system bovine; conditions: Epi; for 14C sugar binding: 30 min at 30° C
Method: as §1

[5] = behavioral basis, cow; cited from earlier work
[6] = cited from earlier work
[7] = test system: taste bud subfraction P4(B); test: Time and temperature effects on 14C sucrose binding; parameters: species or system bovine; conditions: 26 μM 14C sucrose
Method: (§2) All binding studies were carried out in plastic micro test tubes in a constant temperature shaking bath. For these studies KRB, suspensions of the initial filtrates, subfractions and ^14 C labeled and/or unlabeled sugars were incubated in a final volume of 100 μl. After incubation the tubes were placed in an ice bath, centrifuged, the supernatant aspirated and 10 μl KRB layered on top of the pellet.
(§3) The KRB was then aspirated, the top of the test tube cut off with a razor blade just above the bellet, placed into 10 ml Aquasol (New England Nuclear Corp., Boston, Mass.) and the radioactivity determined in a liquid scintillation spectrophotometer. Controls, without filtrates or subfractions, were also included. These controls represent background radioactivity composed mainly of ^14 C sugars bound to the walls of the plastic test tubes. This background radioactivity was always found to be less than 1% of the lowest level obtained in any study with added tissue fractions. Calculations of ^14 C sugar binding also included a correction for non-specific binding (i.e., ^14 C sugar binding not inhibited by an excess of the unlabeled homologous sugar, which occurred when tissue suspensions were used. This value (40%) was the mean calculated from the results of 56 duplicate experiments. […]

[8] = test system: taste bud P4(B) subfractions; test: Displacement of bound 14C sucrose by unlabeled sucrose; type: binding, bovine; conditions: after addition of unlabeled sucrose (0.01-1 mM), FIG. 5; 20 min
Method: as §2, §3

[9] = test system: epithelial P4(B) subfractions; test: Displacement of bound 14C sucrose by unlabeled sucrose (epithelial control); type: binding, bovine
Method: as §2, §3

[10] = test system: epithelial tissue P4(B) subfractions; test: Specific binding: competition of 14C sugars or SSS with unlabeled homologous sugars (epithelial control); parameters: species or system bovine; conditions: FIG. 7
Method: as §2, with “pellet. The KRB was then aspirated, the top of the test tube cut off with a razor blade just above the bellet, placed into 10 ml Aquasol (New England Nuclear Corp., Boston, Mass.) and the radioactivity determined in a liquid scintillation spectrophotometer. Controls, without filtrates or subfractions, were also included.” for “pellet.”

[11] = non-linear Scatchard plot, primary class of binding sites, read-out: Kd (dissociation constant), K1
[12] = non-linear Scatchard plot, secondary class of binding sites, read-out: Kd (dissociation constant), K2
[13] = secondary class of binding sites
[14] = Filtrate, 14C glucose 200 μM, fructose 400 μM, sucrose 26 μM
[15] = Scatchard plot, single class of sites, read-out: Kd (dissociation constant)
[16] = section FRUCTOSE (as the 14C sugar per footnote) with each unlabelled sugar
[17] = section SUCROSE (as the 14C sugar per footnote) with each unlabelled sugar

Row | SMILES | specific binding (competition of 14C sugar or SSS with homologous unlabeled sugar or SSS) [1] | 14C sugar binding [3, 14] [cpm/mg protein] | Relative enrichment of sugar binding compared to the initial filtrate ([3]; P2(B)) | 14C sugar binding ([3]; P2(B)) [cpm/mg protein] | Relative enrichment of sugar binding compared to the initial filtrate ([3]; P3(B)) | 14C sugar binding ([3]; P3(B)) [cpm/mg protein] | Relative enrichment of sugar binding compared to the initial filtrate ([3]; P4(B)) | 14C sugar binding ([3]; P4(B)) [cpm/mg protein] | 14C sugar binding [4, 14] [cpm/mg protein] | Relative enrichment of sugar binding compared to the initial filtrate ([4]; P2(B)) | 14C sugar binding ([4]; P2(B)) [cpm/mg protein] | Relative enrichment of sugar binding compared to the initial filtrate ([4]; P4(B)) | 14C sugar binding ([4]; P4(B)) [cpm/mg protein] | Kd [1, 15] [mM] | Inhibition (%) of 14C Fructose binding by unlabelled sugar [1] | Inhibition (%) of 14C Glucose binding by unlabelled sugar [1] | Inhibition (%) of 14C Sucrose binding by unlabelled sugar [1] | Relative Binding Inhibition [1, 17] [%] | q (concentration of sugar or SSS bound per mg subfraction protein) ([1]; single class of sites) [mM/mg protein] | Recognition thresholds in man [6] [M] | other results
1 | O=S(=O)(O)NC1CCCCC1 [CYCLAMATE, cyclamate] | occurred |  |  |  |  |  |  |  |  |  |  |  |  |  |  |  |  |  |  |  | Kd [1, 11]: 11.7 ± 2.4 mM; Kd [1, 12]: 32.6 ± 3.9 mM; q (concentration of sugar or SSS bound per mg subfraction protein), K1 ([1]; primary class of binding sites): 4.0 ± 0.9 mM/mg protein; q (concentration of sugar or SSS bound per mg subfraction protein), K2 [1, 13]: 6.6 ± 1.4 mM/mg protein
2 | O=C(O)CN(CCN(CC(=O)O)CC(=O)O)CC(=O)O [EDTA, ethylenediaminetetraacetic acid] |  |  |  |  |  |  |  |  |  |  |  |  |  |  |  |  |  |  |  |  | inhibition of 14C sucrose binding [2]: approximately 40%
3 | O=C(CO)[C@@H](O)[C@H](O)[C@H](O)CO [Fructose, fructose] | occurred | 153000 | 3.7 | 569000 | 8.5 | 1.3e+06 | 17.8 | 2.72e+06 | 88000 | 1.1 | 95000 | 0.9 | 78000 | 1.8 ± 0.9 | 70-80% | 36-40% | 14-20% | 59 | 10.5 ± 1.2 | 0.01 to 0.03 | competition of unlabeled sugar with glucose binding [1]: competed with glucose; competition of unlabeled sugar with sucrose binding [1]: did not; Inhibition (%) of 14C Fructose binding by unlabelled sugar ([1]; listed as fructose): about 80%; Relative Binding Inhibition [1, 16]: 100%; bovine discrimination thresholds [5]: 0.06 M
4 | OC[C@H]1OC(O)[C@H](O)[C@@H](O)[C@@H]1O (stereo partly shown) [Glucose, glucose] | occurred | 37000 | 3.2 | 120000 | 9.7 | 360000 | 9.4 | 348000 | 22000 | 1.3 | 29000 | 0.8 | 17000 | 3.4 ± 1.1 | 14-20% | 70-80% | 14-20% | 32 | 2.5 ± 0.5 | 0.01 to 0.03 | competition of unlabeled sugar with fructose binding [1]: did not compete; competition of unlabeled sugar with sucrose binding [1]: did not compete; Inhibition (%) of 14C Glucose binding by unlabelled sugar ([1]; listed as glucose): eighty; Relative Binding Inhibition [1, 16]: 51%; Relative Binding Inhibition ([1]; section GLUCOSE (as the 14C sugar per footnote) with each unlabelled sugar): 100%
5 | [Cl-].[Na+] [NaCl] |  |  |  |  |  |  |  |  |  |  |  |  |  |  |  |  |  |  |  |  | inhibition of 14C sucrose binding [2]: ~50%
6 | O=C1NS(=O)(=O)c2ccccc21 [SACCHARINE, saccharine] | occurred |  |  |  |  |  |  |  |  |  |  |  |  |  |  |  |  |  |  |  | Kd [1, 11]: 18.3 ± 3.9 mM; Kd [1, 12]: 66.2 ± 6.8 mM; q (concentration of sugar or SSS bound per mg subfraction protein), K1 ([1]; primary class of binding sites): 2.7 ± 1.0 mM/mg protein; q (concentration of sugar or SSS bound per mg subfraction protein), K2 [1, 13]: 6.4 ± 0.4 mM/mg protein
7 | OC[C@H]1O[C@@](CO)(O[C@H]2O[C@H](CO)[C@@H](O)[C@H](O)[C@H]2O)[C@@H](O)[C@@H]1O [Sucrose, sucrose] | occurred | 36000 | 3.1 | 113000 | 7.0 | 255000 | 23.8 | 868000 | 33000 | 1.1 | 37000 | 0.5 | 18000 | 1.1 ± 0.4 | 50-60% | 60-65% | 70-80% | 100 | 51 ± 8 | 0.01 to 0.03 | increase in sugar binding compared to the initial filtrate ([3]; taste bud subfraction P3(B)): 7 fold; increase in sugar binding compared to the initial filtrate ([3]; taste bud subfraction P4(B)): 24 fold; increase of sucrose binding activity following increase in incubation temperature from 0° C. to 30° C. ([7]; FIG. 3): four; time to plateau of 14C sucrose binding ([7]; at 30° C.): about 25 min; maximum displacement of the 14C sucrose initially bound [8]: about 80%; reversal of 14C sucrose binding by excess unlabeled sucrose [9]: could not be reversed; competition of unlabeled sugar with fructose binding [1]: competed with both glucose and fructose; competition of unlabeled sugar with glucose binding [1]: competed with both glucose and fructose; Inhibition (%) of 14C Sucrose binding by unlabelled sugar ([1]; listed as sucrose): about 80%; bovine discrimination thresholds [5]: 0.03 M; detection thresholds in normal man ([6]; reported as low as): ≥ 5 mM
8 | [Cl-].[Cl-].[Zn+2] [ZnCl2] |  |  |  |  |  |  |  |  |  |  |  |  |  |  |  |  |  |  |  |  | sucrose binding activity restored, of the initial activity measured in the absence of EDTA ([2]; 5 mM EDTA plus 20 mM Zn++): about 85%
9 | OC[C@H]1O[C@@H](O[C@H]2[C@H](O)[C@@H](O)C(O)O[C@@H]2CO)[C@H](O)[C@@H](O)[C@H]1O (stereo partly shown) [lactose] | did not compete; also recorded: did not bind specifically |  |  |  |  |  |  |  |  |  |  |  |  |  |  |  |  |  |  |  | specific binding (competition of 14C sugar or SSS with homologous unlabeled sugar or SSS) [10]: did not compete; also recorded: did not bind specifically
10 | NC(N)=O [urea] |  |  |  |  |  |  |  |  |  |  |  |  |  |  |  |  |  |  |  |  | inhibition of 14C sucrose binding ([2]; urea 5M, 26 μM 14C sucrose): ~30%
